One may read the IC50 as the concentration that gives 50% inhibition. A high value points to weaker potency in that assay.

The target of the assay is T1, human MRGPRX2 (Homo sapiens, UniProt Q96LB1).
T1 sequence (Q96LB1 1-330): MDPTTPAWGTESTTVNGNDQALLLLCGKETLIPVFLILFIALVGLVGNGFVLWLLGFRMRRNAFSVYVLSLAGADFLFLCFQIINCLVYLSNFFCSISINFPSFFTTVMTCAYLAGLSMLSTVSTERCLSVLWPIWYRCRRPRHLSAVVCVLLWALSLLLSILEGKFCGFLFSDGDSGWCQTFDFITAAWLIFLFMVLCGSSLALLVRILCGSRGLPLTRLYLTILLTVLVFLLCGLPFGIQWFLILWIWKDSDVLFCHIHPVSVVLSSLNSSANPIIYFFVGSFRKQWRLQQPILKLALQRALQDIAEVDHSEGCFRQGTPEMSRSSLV
Kind of assay: Ca2+ mobilization assay (FLIPR TETRA): inhibition of Cortistatin-14 mediated MRGPRX2 activation. Background: A change in cytosolic calcium serves as a functional read-out for many receptors and channels.

Structures can show the parent of a compound that is named as a salt.

In the case of `C[C@@H](C(=O)Nc1ccc(OCC2CCC2)nn1)N1CCC(F)(F)[C@@H](c2ccc(=O)[nH]c2)C1` [Example 71, (S)-N-(6-(cyclobutyl-methoxy)pyridazin-3-yl)-2-((S)-4,4-difluoro-3-(6-oxo-1,6-dihydropyridin-3-yl)piperidin-1-yl)propanamide], the IC50 was 100 to 3160 nM.
`C[C@@H](C(=O)Nc1ccc(F)cn1)N1CCC(F)(F)[C@@H](c2c[nH]c(=O)c(CN)c2)C1` (single isomer, unassigned) [Example 201]: the IC50 was in the range of 100 to 3160 nM.
The compound `C[C@H]1C[C@@H](c2ccc(=O)[nH]n2)CN([C@@H](C)C(=O)Nc2ccc(F)cn2)C1` [Example 162, (S)—N-(5-fluoropyridin-2-yl)-2-((3S,5R)-3-methyl-5-(6-oxo-1,6-dihydropyridazin-3-yl)piperidin-1-yl)propanamide] displayed a concentration for half-maximal inhibition (IC50) of 100 to 3160 nM.
Compound `C[C@@H](C(=O)Nc1ccc(Cl)cn1)N1CCC[C@@H](c2c[nH]c(=O)c(CO)c2)C1` (single isomer, unassigned) [Example 177] displayed an IC50 of 3160 to 31600 nM.
With `C[C@@H](C(=O)Nc1ccc(Oc2ccc(F)cc2F)cn1)[C@H]1CCC(F)(F)[C@@H](c2cc[n+]([O-])cc2)C1` [Example 291, 4-((1R,5S)-5-((R)-1-((5-(2,4-difluorophenoxy)pyridin-2-yl)amino)-1-oxopropan-2-yl)-2,2-difluorocyclohexyl)pyridine 1-oxide] the figure was not above 10 nM; with `C[C@@H](C(=O)Nc1ccc(Oc2ccc(F)cn2)cn1)N1CCC(F)(F)[C@@H](c2ccc(=O)[nH]c2)C1` [Example 69, (S)-2-((S)-4,4-difluoro-3-(6-oxo-1,6-dihydropyridin-3-yl)piperidin-1-yl)-N-(5-((5-fluoropyridin-2-yl)oxy)pyridin-2-yl)propanamide], not above 10 nM; with `C[C@@H](C(=O)Nc1ccc(Cl)cn1)N1CCC(F)(F)[C@@H](c2cc[n+]([O-])cc2)C1` [Example 112, 4-((S)-1-((S)-1-((5-chloropyridin-2-yl)amino)-1-oxopropan-2-yl)-4,4-difluoropiperidin-3-yl)pyridine 1-oxide], 100 to 3160 nM.
With `CC(C(=O)Nc1ccc(F)cn1)N1CCC(F)(F)C(c2c[nH]c(=O)c(C(N)=O)c2)C1` (stereo not drawn) [Example 253] the figure was 100 to 3160 nM; with `C[C@@H](C(=O)Nc1ccc(Oc2ccc(F)cc2)cn1)N1CCC(F)(F)[C@@H](c2c[nH]c(=O)c(CN)c2)C1` [Example 204, (S)-2-((S)-3-(5-(aminomethyl)-6-oxo-1,6-dihydropyridin-3-yl)-4,4-difluoropiperidin-1-yl)-N-(5-(4-fluorophenoxy)pyridin-2-yl)propanamide], not above 10 nM.
With `CC(C(=O)Nc1cnc(Oc2ccc(F)cc2)cn1)N1CCC(F)(F)C(c2c[nH]c(=O)c(C#N)c2)C1` (stereo not drawn) [Example 250, 2-(3-(5-cyano-6-oxo-1,6-dihydropyridin-3-yl)-4,4-difluoropiperidin-1-yl)-N-(5-(4-fluorophenoxy)pyrazin-2-yl)propanamide] the figure was 100 to 3160 nM; with `CC(C(=O)Nc1ccc(OCC2CCCC2)cn1)N1CCC(F)(F)[C@@H](c2ccc(=O)[nH]c2)C1` (stereo partly drawn) [Example 47, N-(5-(cyclopentyl-methoxy)pyridin-2-yl)-2-((S)-4,4-difluoro-3-(6-oxo-1,6-dihydropyridin-3-yl)piperidin-1-yl)propanamide], 100 to 3160 nM.
`CC(C(=O)Nc1ccc(Oc2ccc(C#N)cc2)cn1)N1CCC(F)(F)C(c2ccc(=O)[nH]c2)C1` (stereo not drawn) [Example 58, N-(5-(4-cyanophenoxy)pyridin-2-yl)-2-(4,4-difluoro-3-(6-oxo-1,6-dihydropyridin-3-yl)piperidin-1-yl)propanamide] yielded an IC50 of 100 to 3160 nM.
With `CC(C(=O)Nc1ccc(OC2CCC2)cn1)N1CCC(F)(F)[C@@H](c2ccc(=O)[nH]c2)C1` (stereo partly drawn) [Example 78, N-(5-cyclobutoxy-pyridin-2-yl)-2-((S)-4,4-difluoro-3-(6-oxo-1,6-dihydropyridin-3-yl)piperidin-1-yl)propanamide] the figure was 100 to 3160 nM; with `CC(C(=O)Nc1ccc(OC2CC3(CCC3)C2)cn1)N1CCC(F)(F)[C@@H](c2ccc(=O)[nH]c2)C1` (stereo partly drawn) [Example 73, 2-((S)-4,4-difluoro-3-(6-oxo-1,6-dihydropyridin-3-yl)piperidin-1-yl)-N-(5-(spiro[3.3]heptan-2-yloxy)pyridin-2-yl)propanamide], 100 to 3160 nM; with `C[C@@H](C(=O)Nc1ccc(F)cn1)N1CCC(F)(F)[C@@H](c2ccc(=O)n(CC(F)(F)F)c2)C1` [Example 3, (S)-2-((S)-4,4-difluoro-3-(6-oxo-1-(2,2,2-trifluoroethyl)-1,6-dihydropyridin-3-yl)piperidin-1-yl)-N-(5-fluoropyridin-2-yl)propanamide], not above 10 nM.
With `C[C@@H](C(=O)Nc1cnc(Oc2ccc(F)cc2)cn1)N1CCC(F)(F)[C@@H](c2c[nH]c(=O)c(CS(C)(=O)=O)c2)C1` [Example 215, (S)-2-((S)-4,4-difluoro-3-(5-((methylsulfonyl)methyl)-6-oxo-1,6-dihydropyridin-3-yl)piperidin-1-yl)-N-(5-(4-fluorophenoxy)pyrazin-2-yl)propanamide] the figure was 10 to 100 nM; with `C[C@@H](C(=O)Nc1ccc(OCC2CC2)cn1)N1CCC(F)(F)[C@@H](c2cc[n+]([O-])cc2)C1` [Example 111, 4-((S)-1-((S)-1-((5-(cyclopropylmethoxy)pyridin-2-yl)amino)-1-oxopropan-2-yl)-4,4-difluoropiperidin-3-yl)pyridine 1-oxide], 10 to 100 nM; with `C[C@@H](C(=O)Nc1ccc(Cl)cn1)N1CCC(F)(F)[C@@H](c2ccc(=O)[nH]c2)C1` [Example 81, (S)-N-(5-chloropyridin-2-yl)-2-((S)-4,4-difluoro-3-(6-oxo-1,6-dihydropyridin-3-yl)piperidin-1-yl)propanamide], 100 to 3160 nM.
In the case of `CC(C(=O)Nc1cc2ccn(CC3CC3)c2cn1)N1CCC(F)(F)[C@@H](c2ccc(=O)[nH]c2)C1` (stereo partly drawn) [Example 51, N-(1-(cyclopropyl-methyl)-1H-pyrrolo[2,3-c]pyridin-5-yl)-2-((S)-4,4-difluoro-3-(6-oxo-1,6-dihydropyridin-3-yl)piperidin-1-yl)propanamide], the IC50 was in the range of 100 to 3160 nM.
With `C[C@@H](C(=O)Nc1ccc(Cl)cn1)N1CCC(F)(F)[C@@H](c2c[nH]c(=O)cn2)C1` [Example 136, (S)-N-(5-chloropyridin-2-yl)-2-((R)-4,4-difluoro-3-(5-oxo-4,5-dihydropyrazin-2-yl)piperidin-1-yl)propanamide] the figure was 100 to 3160 nM.
In the case of `C[C@@H](C(=O)Nc1ccc(Oc2ccc(F)c(F)c2F)cn1)N1CCC(F)(F)[C@@H](c2cc[n+]([O-])cc2)C1` [Example 131, 4-((S)-4,4-difluoro-1-((S)-1-oxo-1-((5-(2,3,4-trifluorophenoxy)pyridin-2-yl)amino)propan-2-yl)piperidin-3-yl)pyridine 1-oxide], the IC50 was not above 10 nM.
As for `CC(C(=O)Nc1ccc(OC2CCCCC2)cn1)N1CCC(F)(F)[C@@H](c2ccc(=O)[nH]c2)C1` (stereo partly drawn) [Example 24, N-(5-(cyclohexyloxy)pyridin-2-yl)-2-((S)-4,4-difluoro-3-(6-oxo-1,6-dihydropyridin-3-yl)piperidin-1-yl)propanamide], the IC50 lay in the range of 100 to 3160 nM.
With `C[C@@H](C(=O)Nc1ccc(Oc2cccnc2)cn1)N1CCC(F)(F)[C@@H](c2ccc(=O)[nH]c2)C1` [Example 59, (S)-2-((S)-4,4-difluoro-3-(6-oxo-1,6-dihydropyridin-3-yl)piperidin-1-yl)-N-(5-(pyridin-3-yloxy)pyridin-2-yl)propanamide] the figure was 100 to 3160 nM; with `CC(C(=O)Nc1ccc(Oc2ccccc2)cn1)N1CCC(F)(F)C(c2cc[n+]([O-])cc2)C1` (stereo not drawn) [Example 110], not above 10 nM; with `C[C@@H](C(=O)Nc1ccc(Oc2ccc(F)cn2)cn1)[C@H]1CCC(F)(F)[C@@H](c2cc[n+]([O-])cc2)C1` [Example 294, 4-((1R,5S)-2,2-difluoro-5-((R)-1-((5-((5-fluoropyridin-2-yl)oxy)pyridin-2-yl)amino)-1-oxopropan-2-yl)cyclohexyl)pyridine 1-oxide], not above 10 nM.
With `C[C@@H](C(=O)Nc1ccc(Oc2ccccn2)cn1)N1CCC(F)(F)[C@@H](c2cc[n+]([O-])cc2)C1` [Example 126, 4-((S)-4,4-difluoro-1-((S)-1-oxo-1-((5-(pyridin-2-yloxy)pyridin-2-yl)amino)propan-2-yl)piperidin-3-yl)pyridine 1-oxide] the figure was 10 to 100 nM.
The compound `CC(C(=O)Nc1ccc(Cc2ccccn2)cn1)N1CCC(F)(F)[C@@H](c2ccc(=O)[nH]c2)C1` (stereo partly drawn) [Example 57, 2-((S)-4,4-difluoro-3-(6-oxo-1,6-dihydropyridin-3-yl)piperidin-1-yl)-N-(5-(pyridin-2-ylmethyl)pyridin-2-yl)propanamide hydrochloride] registered a half-maximal inhibitory concentration (IC50) of 100 to 3160 nM.
Take `CC(C(=O)Nc1ccc(Oc2ccc(F)cc2)cn1)N1CCC(F)(F)C(c2c[nH]c(=O)c(CNCCO)c2)C1` (stereo not drawn) [Example 238, 2-(4,4-difluoro-3-(5-(((2-hydroxyethyl)amino)methyl)-6-oxo-1,6-dihydropyridin-3-yl)piperidin-1-yl)-N-(5-(4-fluorophenoxy)pyridin-2-yl)propanamide]: the IC50 is not above 10 nM.
As for `C[C@@H](C(=O)Nc1ccc(Cl)cn1)N1CCC[C@@H](c2ccc(=O)n(CC(F)(F)F)c2)C1` (single isomer, unassigned) [Example 167], the IC50 was 100 to 3160 nM.
With `C[C@@H](C(=O)Nc1ccc(OCc2ccccc2)cn1)N1CCC(F)(F)[C@@H](c2ccc(=O)[nH]c2)C1` [Example 22, (S)-N-(5-(benzyloxy)pyridin-2-yl)-2-((S)-4,4-difluoro-3-(6-oxo-1,6-dihydropyridin-3-yl)piperidin-1-yl)propanamide] the figure was 100 to 3160 nM.
